# Test results from US20060069132A1, “Azolecarboxamide herbicides” (priority 2004, published 2006).
# Columns and labels:
# [1] = test system: corn (maize) cv. Pioneer 33G26; assay: Test G safening on corn by naphthalic anhydride seed treatment, preemergence; type: in vivo, Zea mays
# Excerpt: This test evaluated the safening of compounds of the invention on corn (maize; Zea mays L.) cv. ‘Pioneer 33G26’ by seed treatment with naphthalic anhydride (1,8-naphthalic anhydride). All corn seed had been first treated with fludioxonil and metaxyl applied at the manufacturer's recommended rate as per the Pioneer 33G26 label. Some of the corn seed were subsequently also treated with naphthalic anhydride as a 1% by weight seed dressing. The corn seed were planted in pots containing pasteurized Sassafras sandy loam soil, and then treatments were applied preemergence the same day. Treatments were applied by spraying the test compounds formulated in a non-phytotoxic solvent mixture, using a flat fan nozzle and a spray volume of 280 L/ha. The treatments were triply replicated and the results subsequently averaged. The pots were placed on a greenhouse bench using a complete randomized block design except for the first replicate, which was unrandomized. The plants were grown in the greenhouse and watered as needed with a dilute nutrient solution containing 200 ppm of N. Illumination was daylight supplemented by artificial sources to maintaining a photoperiod of 16 hours. The temperature was maintained at 28±2° C. during the day and 23±2° C. at night. The plant response was visually rated 25 days after treatment in comparison to untreated controls using a scale of 0 to 100, with 0 representing no effect and 100 representing complete plant death.
# wheat cv. Retical = assay: Test H safening on wheat by naphthalic anhydride seed treatment, pre-/postemergence; type: in vivo, Triticum aestivum; set-up: key to Response of wheat, Without naphthalic anhydride seed treatment: 0 = no effect, 100 = complete plant death, vs untreated control
# Protocol: This test evaluated the safening of compounds of the invention on wheat (Triticum aestivumL.) cv. ‘Retical’ by seed treatment with naphthalic anhydride. Some of the wheat seed was treated with napthalic anhydride as a 1% by weight seed dressing. The wheat seed were planted in pots containing pasteurized Sassafras sandy loam soil. For postemergence testing the plants were grown 8 days to the 2-leaf stage at time of treatment. Preemergence treatments were applied the same day that the seeds were planted. Treatments were applied by spraying the test compounds formulated in a non-phytotoxic solvent mixture, using a flat fan nozzle and a spray volume of 280 L/ha. The preemergence treatments were triply replicated and the results subsequently averaged. The pots were placed on a growth chamber bench using a complete randomized block design for the preemergence test except for the first replicate, which was unrandomized. The plants were grown in the growth chamber and watered as needed with a dilute nutrient solution containing 200 ppm of N. Illumination was provided by fluorescent lamps giving 200-300 μE/m^2/S of photosynthetically active radiation over a 14-hour photoperiod. The temperature was maintained at 23±2° C. during the day and 17±2° C. at night. The effects of the treatments were rated 25 days after preemergence treatment and 14 days after postemergence treatment. The plant response was visually rated in comparison to untreated controls using a scale of 0 to 100, with 0 representing no effect and 100 representing complete plant death. The results for the compounds tested preemergence are listed in Table H1, and the results for the compounds tested postemergence are listed in Table H2.
# blackgrass = assay: Test F pre-/postemergence herbicide test; type: in vivo, Alopecurus myosuroides; settings: 125 g ai/ha
# Excerpt: (§1) Seeds of plant species selected from annual blugrass (Poa annua L.), blackgrass (Alopecurus myosuroides Huds.), catchweed bedstraw (Gallium aparine L.), common chickweed (Stellaria media (L.) Vill./Cyr.), downy bromegrass (Bromus tectorum L.), green foxtail (Setaria viridis (L.) Beauv.), Italian ryegrass (Lolium multiflorum Lam.), kochia (Kochia scoparia (L.). Schrad.), lambsquarters (Chenopodium album L.), littleseed canarygrass (Phalaris minor Retz.), pigweed (Amaranthus retroflexus L.), Russian thistle (Salsola kali L. ssp. Ruthenica (Iljin) Soo), wild buckwheat (Polygonum convolvulus L.), wild mustard (Sinapis arvensis L.), wild oat (Avena fatua L.), windgrass (Apera spica-venti (L.) Beauv.), winter barley (Hordeum vulgare L.), and wheat (Triticum aestivum L.) were planted and treated preemergence with test chemicals formulated in a non-phytotoxic solvent mixture which included a surfactant.
# (§2) At the same time, plants selected from these crop and weed species were treated with postemergence applications of some of the test chemicals formulated in the same manner. Plants ranged in height from 2 to 18 cm (1- to 4-leaf stage) for postemergence treatments. Treated plants and controls were maintained in a greenhouse for 12 to 14 days, after which time all species were compared to controls and visually evaluated. Plant response ratings, summarized in Table F, are based on a scale of 0 to 100 where 0 is no effect and 100 is complete control. A dash (-) response means no test result.
# downy bromegrass = assay: Test F pre-/postemergence herbicide test; type: in vivo, Bromus tectorum; settings: 125 g ai/ha
# Excerpt: as §1, §2
# green foxtail = assay: Test F pre-/postemergence herbicide test; type: in vivo, Setaria viridis; settings: 125 g ai/ha
# Excerpt: as §1, §2
# Italian ryegrass = assay: Test F pre-/postemergence herbicide test; type: in vivo, Lolium multiflorum; settings: 125 g ai/ha
# Excerpt: as §1, §2
# lambsquarters = assay: Test F pre-/postemergence herbicide test; type: in vivo, Chenopodium album; settings: 125 g ai/ha
# Excerpt: as §1, §2
# littleseed canarygrass = assay: Test F pre-/postemergence herbicide test; type: in vivo, Phalaris minor; settings: 125 g ai/ha
# Excerpt: as §1, §2
# wild oat = assay: Test F pre-/postemergence herbicide test; type: in vivo, Avena fatua; settings: 125 g ai/ha
# Excerpt: as §1, §2
# wheat = assay: Test F pre-/postemergence herbicide test; type: in vivo, Triticum aestivum; settings: 125 g ai/ha
# Excerpt: as §1, §2
structure (smiles),measurement,setting,value
"CCNC(=O)c1ccc(F)c(NC(=O)c2cc(C(C)(C)C)nn2CC)c1 [Compound 2, 3-(1,1-dimethylethyl)-1-ethyl-N-[5-[(ethylamino)carbonyl]-2-fluorophenyl]-1H-pyrazole-5-carboxamide]","Response of corn, With 1% naphthalic anhydride seed treatment",[1]; 62 g a.i./ha,50
same,"Response of corn, Without naphthalic anhydride seed treatment",[1]; 62 g a.i./ha,65
same,"Response of corn, With 1% naphthalic anhydride seed treatment",[1]; 125 g a.i./ha,55
same,"Response of corn, Without naphthalic anhydride seed treatment",[1]; 125 g a.i./ha,72
same,"Response of corn, With 1% naphthalic anhydride seed treatment",[1]; 250 g a.i./ha,68
same,"Response of corn, Without naphthalic anhydride seed treatment",[1]; 250 g a.i./ha,78
same,"Response of corn, With 1% naphthalic anhydride seed treatment",[1]; 500 g a.i./ha,72
same,"Response of corn, Without naphthalic anhydride seed treatment",[1]; 500 g a.i./ha,85
same,"Response of wheat, With 1% naphthalic anhydride seed treatment","wheat cv. Retical; postemergence, 62 g a.i./ha",30
same,"Response of wheat, Without naphthalic anhydride seed treatment","wheat cv. Retical; postemergence, 62 g a.i./ha",60
same,"Response of wheat, With 1% naphthalic anhydride seed treatment","wheat cv. Retical; postemergence, 125 g a.i./ha",65
same,"Response of wheat, Without naphthalic anhydride seed treatment","wheat cv. Retical; postemergence, 125 g a.i./ha",75
same,"Response of wheat, With 1% naphthalic anhydride seed treatment","wheat cv. Retical; preemergence, 62 g a.i./ha",50
same,"Response of wheat, Without naphthalic anhydride seed treatment","wheat cv. Retical; preemergence, 62 g a.i./ha",62
same,"Response of wheat, With 1% naphthalic anhydride seed treatment","wheat cv. Retical; preemergence, 125 g a.i./ha",72
same,"Response of wheat, Without naphthalic anhydride seed treatment","wheat cv. Retical; preemergence, 125 g a.i./ha",82
CCc1nn(C(C)(C)C)cc1C(=O)Nc1cc(C(=O)N(CC)CC)ccc1F [Compound 223],"Plant response rating (0-100), Blackgrass",blackgrass; Postemergence,60
same,"Plant response rating (0-100), Blackgrass",blackgrass; Preemergence,70
same,"Plant response rating (0-100), Bromegrass, Downy",downy bromegrass; Postemergence,20
same,"Plant response rating (0-100), Bromegrass, Downy",downy bromegrass; Preemergence,50
same,"Plant response rating (0-100), Foxtail, Green",green foxtail; Postemergence,60
same,"Plant response rating (0-100), Foxtail, Green",green foxtail; Preemergence,55
same,"Plant response rating (0-100), Ryegrass, Italian",Italian ryegrass; Postemergence,45
same,"Plant response rating (0-100), Ryegrass, Italian",Italian ryegrass; Preemergence,65
same,"Plant response rating (0-100), Lambsquarters",lambsquarters; Postemergence,65
same,"Plant response rating (0-100), Lambsquarters",lambsquarters; Preemergence,95
same,"Plant response rating (0-100), Canarygrass",littleseed canarygrass; Postemergence,40
same,"Plant response rating (0-100), Canarygrass",littleseed canarygrass; Preemergence,50
same,"Plant response rating (0-100), Oat, Wild",wild oat; Postemergence,35
same,"Plant response rating (0-100), Oat, Wild",wild oat; Preemergence,70
same,"Plant response rating (0-100), Wheat",wheat; Postemergence,0
same,"Plant response rating (0-100), Wheat",wheat; Preemergence,0
